Laboratory results published in patent publication US7122624B2, “Parathyroid hormone receptor ligands” (The United States of America as represented by the …, priority 1999, dated 2006).

What was measured:
[1] = biological target: T1, PTH2 receptor (Homo sapiens, UniProt P49190); experiment: Radioligand displacement binding to HEK293 cell membranes expressing the human PTH2 receptor; conditions: 10 μM GTPγS, filtration assay
Protocol: In these assays the binding of a range of concentrations of an unlabeled ligand was measured by displacement of radioligand binding. Three methods were employed. An assay employing centrifugation to separate bound and free radioligand was used to accurately measure ligand binding parameters. A higher-throughput method employing rapid filtration was used to generate comparative ligand binding data. […] In these assays a very low concentration of radioligand was used so that the IC50 closely approximates the ligand affinity.
In the centrifugation assay cell membranes (45–50 μg), radioligand (100,000–300,000 cpm) and unlabeled ligand were incubated in a final volume of 1 ml assay buffer (20 mM HEPES, 100 mM NaCl, 1 mM EDTA, 3 mM MgSO4 pH 7.5, supplemented with 0.3% non-fat dried milk powder, 100 μM AEBSF and 1 μg/ml bacitracin) for two hours at 21° C. Membranes were collected at 18,000×g, the surface of the pellet gently washed and the radioactivity counted as described in Examples. […] Less than 20% of the total radioligand added was bound within the membrane pellet. […] (Greater than 50% of the total radioligand was bound if all the membrane in the incubation was from transfected cells).
For inhibition of radioligand binding, y is the cpm bound at a given unlabeled ligand concentration, min is non-specific binding (measured in the presence of a high concentration of the unlabeled version of the radiolabeled ligand) and max is total binding (measured in the absence of unlabeled ligand).
Binding was measured in the presence of 10 μM GTPγS to minimize complications arising from receptor-G-protein coupling, such as pseudo-irreversible binding of the agonist radioligand.
A similar assay design was used for the PTH1 and PTH2 receptor, in which radiolabeled agonist binding was displaced by the unlabeled ligands in the presence of 10 μM GTPγS. Briefly, cell membranes (45 μg), radioligand (50,000 cpm) and unlabeled ligand were incubated in a final volume of 1 ml assay buffer (20 mM HEPES, 100 mM NaCl, 1 mM EDTA, 3 mM MgSO4 pH 7.5, supplemented with 0.3% non-fat dried milk powder, 100 μM (4-(2-aminoethyl))-benzenesulfonylflouride (AEBSF), 1 μg/ml bacitracin and 10 μM GTPγS) for two hours at 21° C. Membranes were collected at 18,000×g, the surface of the pellet gently washed and the radioactivity counted as described in Examples. […] To prevent greater than 20% of the total radioligand added from binding to the membranes, 15–20 μg of membranes from transfected cells were used, made up to 45 μg with membranes from non-transfected cells.

[2] = biological target: T1, PTH2 receptor; experiment: Filtration binding assay, COS-7 membranes, wild-type PTH2 receptor; set-up: expressed in transfected cells; host or cells: COS-7 (transient), pcDNA1/Amp; conditions: 10 μM GTPγS
[3] = biological target: T2, P2-NP1 receptor (Homo sapiens, UniProt P49190+Q03431, A242R/A272V/A275H/A276I/A279I/A426C/A456S/C397H/D353E/DEL244-271/DEL429-429/DEL62-106/E317D/E431S/F287M/F327I/F461Y/G350R/G395V/I363Y/I379L/I381T/I470V/INS277[…]/K318T/K359I/L228V/L289I/L331F/L389I/L407A/L416V/L436G/L446F/M312V/M414V/M425V/M445L/N348D/N358D/P415L/Q401K/Q438E/Q440R/R282K/R390W/R396G/S308N/S341V/S356A/S370A/S433T/S473M/T273H/T286V/T325I/T349A/T427L/T430H/T435L/V235T/V283I/V326L/V334A/V338A/V340A/V342A/V365A/V372G/V432F/V439I/Y443C); experiment: Filtration binding assay, COS-7 membranes, P2-NP1 chimeric receptor; conditions: 10 μM GTPγS
T2 construct: N-terminal domain and first transmembrane domain of the PTH 1 receptor fused to the remainder of the PTH2 receptor (P2-NP1); residues 172–550 of the PTH2 receptor; expressed in transfected cells; host or cells: COS-7 (transient)
T2 sequence (Q03431+P49190 fused with the stated changes): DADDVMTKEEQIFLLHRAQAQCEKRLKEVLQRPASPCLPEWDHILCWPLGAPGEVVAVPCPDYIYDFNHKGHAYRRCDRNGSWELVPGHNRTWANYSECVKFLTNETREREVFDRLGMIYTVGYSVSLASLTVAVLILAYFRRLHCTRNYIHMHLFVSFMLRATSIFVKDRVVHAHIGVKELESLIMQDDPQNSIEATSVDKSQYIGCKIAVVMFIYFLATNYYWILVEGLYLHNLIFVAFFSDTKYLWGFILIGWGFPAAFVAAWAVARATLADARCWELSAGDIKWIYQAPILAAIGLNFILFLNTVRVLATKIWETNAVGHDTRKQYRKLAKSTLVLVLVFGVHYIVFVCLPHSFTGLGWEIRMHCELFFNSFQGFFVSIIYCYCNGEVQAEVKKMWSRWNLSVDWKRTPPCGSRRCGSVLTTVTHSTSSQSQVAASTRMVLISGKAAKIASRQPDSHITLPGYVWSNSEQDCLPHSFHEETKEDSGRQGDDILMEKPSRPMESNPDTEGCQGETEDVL

[4] = biological target: T3, P1-NP2 receptor (Homo sapiens, UniProt P49190+Q03431, A289V/A293V/A295V/A297V/A304T/A311S/A320V/A325S/A362L/C381A/C397Y/D272E/D303N/D313N/DEL207-232/E308D/E392Q/F286L/F386V/F400L/G327V/G351R/G390L/H202T/H204A/H352C/H384T/I205A/I234A/I238V/I244L/I280T/I282F/I314K/I344L/I393V/INS200[…]/INS383Y/K237R/K356Q/L281V/L334I/L370P/L382T/L389T/L399M/M242F/M427S/N263S/R199A/R305G/R394Q/S385E/S410A/T192V/T273K/T336I/T387S/V185L/V201A/V241T/V267M/V296S/V350G/V369M/V371L/V380M/V424I/W345R/Y318I/Y415F); experiment: Filtration binding assay, COS-7 membranes, P1-NP2 chimeric receptor; conditions: 10 μM GTPγS
T3 construct: the N-terminal domain and first transmembrane domain of the PTH2 receptor fused to the remainder of the PTH1 receptor (P1-NP2); exchanging residues 215–594 of the PTH1 receptor; expressed in transfected cells; host or cells: COS-7 (transient)
T3 sequence (P49190+Q03431 fused with the stated changes): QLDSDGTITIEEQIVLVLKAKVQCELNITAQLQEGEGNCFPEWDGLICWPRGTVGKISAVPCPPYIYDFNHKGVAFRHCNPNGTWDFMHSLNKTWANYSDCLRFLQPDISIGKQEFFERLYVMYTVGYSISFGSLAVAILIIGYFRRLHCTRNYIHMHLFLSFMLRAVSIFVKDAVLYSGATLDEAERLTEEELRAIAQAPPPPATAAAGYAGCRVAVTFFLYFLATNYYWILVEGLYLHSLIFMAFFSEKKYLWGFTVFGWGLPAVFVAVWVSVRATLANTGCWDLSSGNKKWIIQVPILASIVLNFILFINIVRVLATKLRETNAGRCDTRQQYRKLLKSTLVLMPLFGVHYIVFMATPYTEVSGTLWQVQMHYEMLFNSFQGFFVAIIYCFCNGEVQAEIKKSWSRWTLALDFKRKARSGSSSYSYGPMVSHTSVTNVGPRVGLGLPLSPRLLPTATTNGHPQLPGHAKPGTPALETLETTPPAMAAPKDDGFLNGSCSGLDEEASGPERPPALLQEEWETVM

[5] = system: PTH1 receptor; experiment: Filtration binding assay, COS-7 membranes, wild-type PTH1 receptor; set-up: species or system human; conditions: 10 μM GTPγS

T1 sequence (P49190 25-550): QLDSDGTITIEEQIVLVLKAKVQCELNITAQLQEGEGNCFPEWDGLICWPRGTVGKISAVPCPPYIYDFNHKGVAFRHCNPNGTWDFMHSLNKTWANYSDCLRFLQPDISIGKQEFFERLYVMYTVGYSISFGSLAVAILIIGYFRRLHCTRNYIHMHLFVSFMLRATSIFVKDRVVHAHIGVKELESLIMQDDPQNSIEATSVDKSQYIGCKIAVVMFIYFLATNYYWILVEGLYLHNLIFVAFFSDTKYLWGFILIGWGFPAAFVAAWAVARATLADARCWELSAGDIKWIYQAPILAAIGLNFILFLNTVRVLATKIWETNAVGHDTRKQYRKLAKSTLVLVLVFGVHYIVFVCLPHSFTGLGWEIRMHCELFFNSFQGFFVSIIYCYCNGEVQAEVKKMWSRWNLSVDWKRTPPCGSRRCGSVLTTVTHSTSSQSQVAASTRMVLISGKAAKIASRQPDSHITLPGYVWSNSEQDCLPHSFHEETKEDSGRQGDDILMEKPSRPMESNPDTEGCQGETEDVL

Structure (SMILES): Nc1nc2c(ncn2[C@@H]2O[C@H](COP(=O)(O)OP(=O)(O)OP(O)(O)=S)[C@@H](O)[C@H]2O)c(=O)[nH]1 [GTPγS]
- reduction of [125I]TIP39 binding [1]: 62±2%
- reduction of radioligand binding [2]: 53±4%
- reduction of radioligand binding [3]: 69±6%
- reduction of radioligand binding [4]: 63±1%
- reduction of radioligand binding [5]: 5±2%
